Results reported in US20030027787A1, “Crosslinked polysaccharide, obtained by crosslinking with substituted polyethylene glycol, as superabsorbant” (GROUP LYSAC INC./LYSAC GROUP INC., priority 2000, published 2003).

Question: “Starch Maleate Half Ester, Crosslinked with 0.08 Eq. Triglycol Dichloride [Example 21]” was tested. Which toxicity for microorganisms (microorganisms) did it give?
Answer: Its toxicity for microorganisms is “no toxicity”.

Question: And the “toxic product destroying the aquatic flora” value (Daphnia magna)?
Answer: The value was “no toxic product have been detected”.
